Results from patent publication US20250302975A1, “METHODS AND COMPOSITIONS FOR AGONISING TLR3” (priority 2024, published 2025).

Experiments:
[1] = system: s.c. CT26 tumors; assay: CT26 colon cancer s.c. model, intratumoral treatment (Example 1); format: in vivo, BALB/c mice; settings: i.t. treatment
Procedure: (§1) Female BALB/c and C57BL/6 mice (6-7 weeks old) were purchased from the Jackson Laboratory. All animal studies were approved by and conducted according to the regulation of the Institutional Animal Care and Use Committee of the University of California, San Diego. CT26 cells were administered via the intraperitoneal (i.p.) and subcutaneous (s.c.) routes. […] Treatments were administered three times at weekly intervals. The body circumference and weight were recorded for 40 days at 2-day intervals and mice were euthanized when the circumference reached ˜8 cm. To establish the CT26 colon cancer s.c. model, CT26 cells (1.5×10^5 cells in 15 μL PBS) were mixed with 15 μL Matrigel (Corning) and injected s.c. into the left flank of BALB/c mice. […] The tumor volumes, calculated using the equation tumor width^2×tumor length)/2, and body weight were recorded for 40 days at 2-day intervals and mice were euthanized when the tumor volume reached ˜1500 mm^3.

[2] = system: CT26 tumors induced by i.p. inoculation; assay: CT26 colon cancer i.p. model, i.p. treatment (Example 1); format: in vivo, BALB/c mice; settings: for tumor growth inhibition: i.p. treatment on days 3, 10 and 17, compared to PBS control
Procedure: as §1

[3] = system: CT26 tumors induced by i.p. inoculation; settings: reference [17]; cited from earlier work
[4] = system: RAW-Blue cells; assay: RAW-Blue cells / Quanti-Blue SEAP assay, in vitro immunogenicity (Example 1); format: cell-based; parameters: dose or concentration left out as unconfirmed; settings: 24 h
Procedure: RAW-Blue cells (InvivoGen) were grown in Dulbecco's Modified Eagle's Medium (DMEM) supplemented with 10% (v/v) heat-sterilized fetal bovine serum (FBS; Atlanta Biologicals) and 1% (v/v) penicillin/streptomycin (p/s; Thermo Fisher Scientific). Normocin ([…]) and zeocin ([…]) were also added according to the supplier's instructions (InvivoGen). CT26 cells obtained from the ATCC were grown in Roswell Park Memorial Institute (RPMI) 1640 medium and DMEM, respectively, each supplemented with 10% (v/v) FBS and 1% (v/v) p/s.
Lipopolysaccharide (LPS; InvivoGen) was used as a positive control. After the incubation, 20 μL of the supernatant was mixed with 180 μL of Quanti-Blue solution (InvivoGen) and incubated at room temperature for 6 h. The absorbance was then measured at 630 nm using a microplate reader (Tecan).

Compound | tumor volume ([1]; day 26) | survival rate ([2]; compared to mice treated with CCMV or poly(I:C) alone) | tumor growth inhibition [2] | impact on CT26 tumors (previous work) [3] | tumor growth by day 26 [1] | body weight of CT26-bearing mice ([2]; weight gain is due to growth of the tumor) | SEAP levels versus PBS-treated control [4]
O=C1[O][Pt]2([NH][C@@H]3CCCC[C@H]3[NH]2)[O]C1=O [oxaliplatin] | ~233 mm^3 | slightly increased the survival rate | significantly inhibited tumor growth | – | – | – | –
ODN1826 | – | – | – | minimal impact | – | – | –
polyinosinic:polycytidylic acid [poly(I:C)] | – | – | slight inhibitory effect, albeit not statistically significant | – | 30 fold | increased | did not differ significantly
